Experimental findings from ChEMBL document CHEMBL4177722, “Small molecule inhibitors of anthrax edema factor” (Bioorg Med Chem Lett, 2018) are described below.

In general, half-life refers to the time needed for the level to fall by half in the phase considered. For orientation: CC50 means the concentration giving 50% cytotoxicity. The pKi is the negative decadic logarithm of the Ki, by convention in mol/L.

Data set [1] deals with T1, Calmodulin-sensitive adenylate cyclase (Bacillus anthracis) (UniProt P40136).
T1 sequence (whole entry): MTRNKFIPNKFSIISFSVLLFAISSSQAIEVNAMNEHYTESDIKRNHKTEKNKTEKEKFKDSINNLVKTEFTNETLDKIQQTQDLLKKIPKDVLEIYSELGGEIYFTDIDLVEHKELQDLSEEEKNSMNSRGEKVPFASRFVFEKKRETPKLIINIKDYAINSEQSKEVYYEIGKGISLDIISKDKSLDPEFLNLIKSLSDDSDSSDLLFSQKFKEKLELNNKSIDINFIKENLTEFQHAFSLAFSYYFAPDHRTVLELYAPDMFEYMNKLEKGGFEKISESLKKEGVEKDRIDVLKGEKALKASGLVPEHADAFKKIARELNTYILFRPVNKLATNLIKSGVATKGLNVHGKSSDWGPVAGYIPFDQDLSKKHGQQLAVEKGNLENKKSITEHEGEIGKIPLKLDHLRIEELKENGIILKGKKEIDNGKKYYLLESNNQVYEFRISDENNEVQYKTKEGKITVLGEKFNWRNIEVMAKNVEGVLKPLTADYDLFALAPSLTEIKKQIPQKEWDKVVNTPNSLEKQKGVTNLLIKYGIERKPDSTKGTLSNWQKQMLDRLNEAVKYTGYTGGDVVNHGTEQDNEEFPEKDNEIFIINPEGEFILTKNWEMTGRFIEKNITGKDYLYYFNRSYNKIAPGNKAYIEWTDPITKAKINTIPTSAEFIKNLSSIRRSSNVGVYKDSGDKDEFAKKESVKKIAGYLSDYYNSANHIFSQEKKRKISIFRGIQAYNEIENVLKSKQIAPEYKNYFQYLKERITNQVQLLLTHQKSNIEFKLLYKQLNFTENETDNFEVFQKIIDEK
In words: Inactivation of Bacillus anthracis edema factor assessed as Kinact/Ki ratio in presence of CaM incubated for 10 to 240 mins by EnzChek pyrophosphate assay.

The target in data set [2] is T1, Calmodulin-sensitive adenylate cyclase (Bacillus anthracis). In words: Inactivation of Bacillus anthracis edema factor assessed as Kinact/Ki ratio in presence of CaM incubated for 10 to 240 mins by EnzChek pyrophosphate assay relative to FSBA.
Data set [3] has the same target. In words: Inactivation of Bacillus anthracis edema factor assessed as inactivation rate constant in presence of CaM incubated for 10 to 240 mins by EnzChek pyrophosphate assay.
A short description of data set [4]: Stability in C57BL/6 mouse plasma assessed as half life at 10 uM by LC-MS method. It is filed as ADME, cell-free, C57B/6.
A short description of data set [5]: Cytotoxicity against mouse RAW264.7 cells assessed a reduction in cell viability incubated for 24 hrs in presence of 10% FBS by MTT assay. It is filed as cell-based. As to conditions: RAW264.7 cells. (In general: Formazan colour is commonly taken as a measure of viable cells.)
In another data set the test system is RAW264.7. In words: Cytotoxicity against mouse RAW264.7 cells assessed a reduction in cell viability incubated for 24 hrs in absence of 10% FBS by MTT assay. It is filed as cell-based. As to conditions: raw264.7, 24 h.
For data set [6], the target named is T2, Calmodulin-sensitive adenylate cyclase (Bacillus anthracis, UniProt P40136).
T2 sequence (P40136 whole entry): T1 sequence (whole entry)
In words: Inactivation of Bacillus anthracis edema factor in presence of CaM incubated for 10 to 240 mins by EnzChek pyrophosphate assay.

pKi: −log10 of the molar value.

`Nc1cc(OC2CCN(C(=O)c3ccc(S(=O)(=O)F)cc3)CC2)ccn1`: the values for the Ratio in data set [1] and in data set [2] were 5.8 to 19.3 and 0.4 to 1.4, respectively. Besides, the Kinact in data set [3] is 0.049 to 0.069 min⁻¹. For the same compound, the half-life at 10 µM in data set [4] was 0.66 h. Also, in data set [5], the CC50 at 24 h is above 100 µM. Moreover, the Activity entry with RAW264.7 is reported as “Non-Toxic”.

In the case of `Nc1cc(OC2CN(C(=O)c3ccc(S(=O)(=O)F)cc3)C2)ccn1`, the Ratio in data set [1] was found to be 4.9; in data set [2], 0.4. Besides, the Kinact in data set [3] was 0.003 min⁻¹. In addition, the pKi in data set [6] was 4.96. The Activity result in the data set with RAW264.7 is listed as “Non-Toxic”.

In the case of `Nc1ncnc2c1ncn2[C@@H]1CCCN(C(=O)c2ccc(S(=O)(=O)F)cc2)C1`, the Ratio was determined as 6.7 in data set [1] and 0.5 in data set [2]. Further, the Kinact in data set [3] is 0.039 min⁻¹. Moreover, in data set [6], the pKi was 4.02. In addition, in data set [5], the CC50 at 24 h was above 100 µM. Moreover, in the data set on RAW264.7, the Activity entry is listed as “Non-Toxic”.

For the compound `Cc1nc(N)c2ncn(C3CCN(Cc4ccc(S(=O)(=O)F)cc4)CC3)c2n1`, the results for the Ratio in data set [1] and in data set [2] were 31.2 and 2.3, respectively. For the same compound, the Kinact in data set [3] was found to be 0.028 min⁻¹. Besides, the pKi in data set [6] is 4.83. For the same compound, in data set [5], the CC50 at 24 h is above 100 µM. Besides, the Activity result with RAW264.7 is given as “Non-Toxic”.

Turning to `Cc1nc(N)c2ncn(C3CCN(C(=O)c4ccc(S(=O)(=O)F)cc4)CC3)c2n1`, the Ratio in data set [1] is 62.8; in data set [2] it was 4.7. Also, the Kinact in data set [3] stood at 0.062 min⁻¹. Moreover, the pKi in data set [6] was 4.78. Besides, the CC50 at 24 h in data set [5] is above 100 µM. For the same compound, the Activity result with RAW264.7 was “Non-Toxic”.

Turning to `Cc1nc(N)c2cnn(C3CCN(C(=O)c4ccc(S(=O)(=O)F)cc4)CC3)c2n1`, the Ratio worked out at 581 in data set [1] and 43.3 in data set [2]. The Kinact in data set [3] came out at 0.072 min⁻¹. Moreover, in data set [4], the half-life at 10 µM is 1.2 h. Besides, the pKi in data set [6] is 5.68. In data set [5], the CC50 at 24 h is above 100 µM. The Activity entry in the data set with RAW264.7 is on record as “Non-Toxic”.

Consider `Cc1nc(N)c2cnn(C3CCN(Cc4ccc(S(=O)(=O)F)cc4)CC3)c2n1`, for which the Ratio was determined as 190 in data set [1] and 14.2 in data set [2]. Besides, in data set [3], the Kinact amounted to 0.052 min⁻¹. For the same compound, the half-life at 10 µM in data set [4] is 1.2 h. In data set [6], the negative logarithm of the Ki (pKi) was 5.34. Besides, in data set [5], the CC50 at 24 h is above 100 µM. Moreover, in the data set on RAW264.7, the Activity result was “Non-Toxic”.

`Nc1cc(OCCCNC(=O)c2ccc(S(=O)(=O)F)cc2)ccn1`: the figures for the Ratio in data set [1] and in data set [2] were 8.1 and 0.6, respectively. In data set [3], the Kinact turned out to be 0.043 min⁻¹. Further, the pKi in data set [6] is 4.06. The CC50 at 24 h in data set [5] was above 100 µM. The Activity result in the data set with RAW264.7 was “Non-Toxic”.

`Cc1nc(N)cc(OCCNC(=O)c2ccc(S(=O)(=O)F)cc2)n1`: the Ratio in data set [1] is 9.2; in data set [2], 0.7. Also, the Kinact in data set [3] was 0.158 min⁻¹. In data set [6], the pKi is 3.54. The CC50 at 24 h in data set [5] is above 100 µM. In addition, the Activity entry in the data set with RAW264.7 is on record as “Non-Toxic”.

Take `Nc1cc(O[C@@H]2CCN(C(=O)c3ccc(S(=O)(=O)F)cc3)C2)ccn1`: the results for the Ratio in data set [1] and in data set [2] were 3.5 and 0.3, respectively. Besides, the Kinact in data set [3] is 0.008 min⁻¹. In addition, the pKi in data set [6] is 4.41. Also, in the data set with RAW264.7, the Activity entry is given as “Non-Toxic”.

For the compound `Cc1nc(N)c2cnn(CCCNC(=O)c3ccc(S(=O)(=O)F)cc3)c2n1`, the Ratio worked out at 58 in data set [1] and 4.3 in data set [2]. For the same compound, the Kinact in data set [3] worked out at 0.121 min⁻¹. Further, in data set [6], the pKi was 4.46. Besides, the CC50 at 24 h in data set [5] was above 100 µM. For the same compound, the Activity result with RAW264.7 was “Non-Toxic”.

As to `Cc1nc(N)cc(OC2CCN(C(=O)c3ccc(S(=O)(=O)F)cc3)CC2)n1`, the Ratio in data set [1] amounted to 67.8; in data set [2], 5.1. The Kinact in data set [3] was found to be 0.112 min⁻¹. Also, the negative logarithm of the Ki (pKi) in data set [6] is 4.56. For the same compound, in data set [5], the CC50 at 24 h is above 100 µM. For the same compound, the Activity entry in the data set with RAW264.7 was “Non-Toxic”.

For the compound `Nc1cc(OCCCNCc2ccc(S(=O)(=O)F)cc2)ccn1`, the values for the Ratio in data set [1] and in data set [2] were 4.7 and 0.4, respectively. The Kinact in data set [3] came out at 0.063 min⁻¹. Also, in data set [6], the pKi is 3.65. The CC50 at 24 h in data set [5] was above 100 µM. The Activity entry in the data set on RAW264.7 is reported as “Non-Toxic”.

In the case of `Nc1ncnc2c1ncn2CCCNC(=O)c1ccc(S(=O)(=O)F)cc1`, the values for the Ratio in data set [1] and in data set [2] were 5.3 and 0.4, respectively. The Kinact in data set [3] was 0.012 min⁻¹. Also, the pKi in data set [6] was 4.42. For the same compound, in data set [5], the CC50 at 24 h is above 100 µM. In the data set with RAW264.7, the Activity result was “Non-Toxic”.

In the case of `Cc1cc(OC2CCN(Cc3ccc(S(=O)(=O)F)cc3)CC2)cc(N)n1`, the values for the Ratio in data set [1] and in data set [2] were 7.9 and 0.6, respectively. The Kinact in data set [3] was found to be 0.02 min⁻¹. Further, the pKi in data set [6] was 4.37. Also, in data set [5], the CC50 at 24 h was above 100 µM. Further, the Activity result with RAW264.7 is recorded as “Non-Toxic”.

Take `Nc1ncnc2c1cnn2C1CCN(C(=O)c2ccc(S(=O)(=O)F)cc2)CC1`: the Ratio amounted to 1160 in data set [1] and 86.7 in data set [2]. Besides, the Kinact in data set [3] came to 0.26 min⁻¹. Further, in data set [6], the pKi is 5.43. The CC50 at 24 h in data set [5] is above 100 µM. The Activity entry with RAW264.7 is on record as “Non-Toxic”.

On to `Nc1cc(OCCNCc2ccc(S(=O)(=O)F)cc2)ccn1`, for which the Ratio amounted to 9.6 in data set [1] and 0.7 in data set [2]. For the same compound, in data set [3], the Kinact came out at 0.029 min⁻¹. The pKi in data set [6] was 4.30. The CC50 at 24 h in data set [5] was above 100 µM. For the same compound, the Activity entry with RAW264.7 is “Non-Toxic”.

For the compound `CCOC(=O)C1=C[C@]2(CC)CCCN3CCc4c(n1c1ccccc41)[C@@H]32` [VINPOCETINE], the half-life at 10 µM in data set [4] was 13.1 h.

Turning to `Nc1cc(OCCNC(=O)c2ccc(S(=O)(=O)F)cc2)ccn1`, the Ratio in data set [1] amounted to 3.6; in data set [2] it was 0.3. The Kinact in data set [3] is 0.028 min⁻¹. The pKi in data set [6] was 3.89. Further, the CC50 at 24 h in data set [5] is above 100 µM. Besides, in the data set with RAW264.7, the Activity result is reported as “Non-Toxic”.

Regarding `Nc1ncnc2c1ncn2CCOC(=O)c1ccc(S(=O)(=O)F)cc1`, the Ratio is 6.9 in data set [1] and 0.5 in data set [2]. The Kinact in data set [3] turned out to be 0.011 min⁻¹. Besides, the pKi in data set [6] is 4.59. The CC50 at 24 h in data set [5] is above 100 µM. Moreover, in the data set with RAW264.7, the Activity result is “Non-Toxic”.

As for `Nc1ncnc2c1ncn2C1CCN(C(=O)c2ccc(S(=O)(=O)F)cc2)CC1`, the Ratio was 18 in data set [1] and 1.3 in data set [2]. Also, the Kinact in data set [3] is 0.01 min⁻¹. For the same compound, the pKi in data set [6] was 5.03. Besides, the cytotoxic concentration (CC50) at 24 h in data set [5] is above 100 µM. Moreover, the Activity result in the data set with RAW264.7 is “Non-Toxic”.
